Assay results from the supplement of paper PMC10307832.

Key:
Experiment in all cases: relative viability (nuclei count vs DMSO), 5 days (fraction); higher = more cells survive
Sulindac + Tozasertib = compound: CC1=C(CC(=O)O)c2cc(F)ccc2/C1=C\c1ccc([S+](C)[O-])cc1 [Sulindac] + Cc1cc(Nc2cc(N3CCN(C)CC3)nc(Sc3ccc(NC(=O)C4CC4)cc3)n2)n[nH]1 [Tozasertib] (partner 0.1 µM)
Procedure, shortened: (§1)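 Lung cancer cell lines in 1536-well plates got either a single drug or a fixed anchor-drug dose together with five library-drug doses (not always all listed) in √10 steps, by pin tool, on the day after seeding. Nuclei were counted after 5 days, and relative viability is the treated-to-vehicle ratio of nuclei counts. Values are medians of duplicate plates.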

[1] = compound: CN[C@@H]1C[C@H]2O[C@@](C)([C@@H]1OC)n1c3ccccc3c3c4c(c5c6ccccc6n2c5c31)C(=O)NC4 [Staurosporine] + CCNC(=O)c1noc(-c2cc(C(C)C)c(O)cc2O)c1-c1ccc(CN2CCOCC2)cc1 [Luminespib] (partner 0.01 µM)
Procedure, shortened: as §1

[2] = compound: CN[C@@H]1C[C@H]2O[C@@](C)([C@@H]1OC)n1c3ccccc3c3c4c(c5c6ccccc6n2c5c31)C(=O)NC4 [Staurosporine] + Cc1cc(Nc2cc(N3CCN(C)CC3)nc(Sc3ccc(NC(=O)C4CC4)cc3)n2)n[nH]1 [Tozasertib] (partner 0.1 µM)
Procedure, shortened: as §1

5-Fluorouracil + AZD7762 = compound: O=c1[nH]cc(F)c(=O)[nH]1 [5-Fluorouracil] + NC(=O)Nc1cc(-c2cccc(F)c2)sc1C(=O)N[C@H]1CCCNC1 [AZD7762] (partner 0.2 µM)
Procedure, shortened: as §1

Cell Line	relative viability (Sulindac + Tozasertib; first compound 0.08 µM)	relative viability (Sulindac + Tozasertib; first compound 0.253 µM)	relative viability (Sulindac + Tozasertib; first compound 0.8 µM)	relative viability (Sulindac + Tozasertib; first compound 2.53 µM)	relative viability (Sulindac + Tozasertib; first compound 8 µM)	relative viability ([1]; first compound 0.005 µM)	relative viability ([1]; first compound 0.05 µM)	relative viability ([1]; first compound 0.1581 µM)	relative viability ([1]; first compound 0.5 µM)	relative viability ([2]; first compound 0.005 µM)	relative viability ([2]; first compound 0.01581 µM)	relative viability ([2]; first compound 0.05 µM)	relative viability ([2]; first compound 0.1581 µM)	relative viability ([2]; first compound 0.5 µM)	relative viability (5-Fluorouracil + AZD7762; first compound 0.02 µM)	relative viability (5-Fluorouracil + AZD7762; first compound 0.2 µM)	relative viability (5-Fluorouracil + AZD7762; first compound 0.6325 µM)	relative viability (5-Fluorouracil + AZD7762; first compound 2 µM)	relative viability ([1]; first compound 0.01581 µM)
NCI-H322M	0.483	0.485	0.47	0.51	0.499	0.631	0.259	0.274	0.182	0.318	0.318	0.287	0.334	0.288	0.57	0.627	0.608	0.53	–
NCI-H1395	0.694	0.732	0.776	0.733	0.866	0.613	0.349	0.318	0.346	0.705	0.614	0.37	0.331	0.265	0.395	0.405	0.459	0.385	0.507
NCI-H2023	0.558	0.365	0.322	0.3	0.41	0.343	0.109	0.088	0.045	0.202	0.21	0.0713	0.0971	0.0603	–	–	–	–	0.228
NCI-H1651	0.755	0.66	–	0.686	0.666	0.793	0.459	0.173	0.116	0.66	0.675	0.371	0.237	0.185	0.458	0.234	0.186	–	0.614
HARA	0.0822	0.0844	0.121	0.0886	0.103	0.697	0.297	0.0959	0.0973	0.102	–	0.0638	0.0719	0.0716	0.411	0.32	0.4	0.211	–
NCI-H1944	0.258	0.263	0.254	0.247	0.259	0.928	0.41	0.44	0.187	0.255	0.21	0.206	0.161	0.155	0.475	0.199	0.106	0.0961	0.507
NCI-H2405	0.733	0.795	0.684	0.793	0.751	0.282	0.0814	0.112	0.0639	0.586	0.256	0.0844	0.0771	0.0789	0.813	0.86	0.684	0.494	0.148
201T	1.08	0.94	0.957	0.94	0.98	1.03	0.693	0.349	0.334	1.06	–	0.758	0.373	0.31	0.51	0.264	0.197	0.217	–
RERF-LC-KJ	0.569	0.56	0.521	0.307	0.568	0.97	0.266	0.222	0.237	0.414	0.433	0.219	0.178	0.176	0.973	–	0.948	0.893	0.671
NCI-H1650	0.456	0.381	–	0.287	0.426	0.168	0.183	0.16	0.169	0.332	0.302	0.17	0.203	0.123	–	–	–	–	0.18
NCI-H1648	0.397	0.482	0.345	0.415	0.389	–	–	–	–	0.236	0.185	0.169	0.214	0.243	0.582	0.831	0.493	0.435	–
COR-L23	0.591	0.242	0.179	0.186	0.238	0.262	0.083	0.0871	0.0485	0.102	0.112	0.0926	0.0869	0.0647	–	–	–	–	0.324
SW 1573	0.183	0.144	–	0.172	0.163	0.096	0.091	0.0676	0.0574	0.153	0.186	0.119	0.0873	0.069	–	–	–	–	0.0703
NCI-H661	0.351	0.336	0.362	0.362	0.38	0.986	0.604	0.436	0.211	0.392	0.445	0.401	0.335	0.238	–	–	–	–	0.707
NCI-H2009	0.883	0.809	0.712	0.707	0.99	0.357	0.17	0.114	0.149	0.295	0.312	0.176	0.19	0.0978	–	–	–	–	0.271
NCI-H1623	0.392	0.458	0.421	0.418	0.429	0.55	0.401	0.419	0.296	0.491	0.495	0.406	0.425	0.277	–	–	–	–	0.531
HCC-366	0.104	0.148	0.199	0.111	0.198	–	–	–	–	0.144	–	0.0425	0.0279	0.0464	0.354	0.308	0.119	0.0755	–
SK-MES-1	1.07	1.01	0.848	0.956	1.09	–	0.121	0.149	0.124	0.52	0.327	0.149	0.125	0.125	–	–	–	–	0.204
NCI-H1792	–	–	–	–	–	0.459	0.18	0.188	0.199	–	–	–	–	–	0.641	0.303	0.213	0.218	0.287
NCI-H2228	0.222	0.248	0.242	0.294	0.262	0.0928	0.0907	0.0947	0.0857	0.251	0.201	0.109	0.115	0.124	–	–	–	–	0.122
